Marks after values point to notes of the source that are not given here.
Tests used:
Assay type in all cases: cell-based, human
endoserine-1 (ET-1) = assay: ET-1 expression suppression test (real time PCR); conditions: 0.5 mM, 24 hours, NHEK (NB), control 1.00, GAPDH corrected
Method: (§1) A normal human epidermal keratinocyte NHEK (NB) (available from KURABO INDUSTRIES LTD.) was used. The cells were precultured in HuMedia-KG2 (available from KURABO INDUSTRIES LTD.), and 1.5×10^4 cells/mL×5 mL (7.5×10^4 cells/dish) were cultured in a 60 mm laboratory dish for two days. After confirming that the cells were subconfluent, the medium was replaced by 5 mL of HuMedia-KB2 (available from KURABO INDUSTRIES LTD.). Samples were added in respective concentrations, and allowed to react for 24 hours (ET-1, K10), 48 hours (TGM1, ivl, HAS2), and 72 hours (FLG). Total RNA was extracted from the cells, reverse transcribed, and subjected to real time PCR. In the real time PCR, as target genes, endoserine-1 (ET-1; Hs00174961_m1), keratin 10 (K10; Hs01043114_g1), transglutaminase 1 (TGM1; Hs01070310_m1), involucrin (ivl; Hs00846307_s1), filaggrin (FLG; Hs00856927_g1) and hyaluronic acid synthase 2 (HAS2; Hs00193435_m1) were measured. GAPDH was used as a correction gene. Calculation was conducted by using a calibration curve method, and FAM pigment of TaqMan Gene Expression was used in primers and probes.
(§2) For each peptide or the like of Examples 1 to 13 and Comparative Examples 1 to 27, RNA expression amounts of endoserine-1 (ET-1), keratin 10 (K10), transglutaminase 1 (TGM1), involucrin (ivl), filaggrin (FLG) and hyaluronic acid synthase 2 (HAS2) were measured. Values in the tables are each average value±standard deviation, and *, ** and *** denote that they are significant with P<0.05, P<0.01, and P<0.001, respectively with respect to the control in Paired-t-test.

keratin 10 (K10) = assay: K10 expression promotion test (real time PCR); conditions: 0.5 mM, 24 hours, NHEK (NB), control 1.00, GAPDH corrected
Method: as §1, §2

[1] = tested on: transglutaminase 1 (TGM1); assay: TGM1 expression promotion test (real time PCR); conditions: 0.5 mM, 48 hours, NHEK (NB), control 1.00, GAPDH corrected
Method: as §1, §2

involucrin (ivl) = assay: ivl expression promotion test (real time PCR); conditions: 0.5 mM, 48 hours, NHEK (NB), control 1.00, GAPDH corrected
Method: as §1, §2

filaggrin (FLG) = assay: FLG expression promotion test (real time PCR); conditions: 0.5 mM, 72 hours, NHEK (NB), control 1.00, GAPDH corrected
Method: as §1, §2

[2] = tested on: hyaluronic acid synthase 2 (HAS2); assay: HAS2 expression promotion test (real time PCR); conditions: 0.5 mM, 48 hours, NHEK (NB), control 1.00, GAPDH corrected
Method: as §1, §2

Hyp-Gly [Example 9]
Endoserine-I RNA expression amount (endoserine-1 (ET-1)): 0.55 ± 0.09** | Keratin 10 RNA expression amount (keratin 10 (K10)): 1.99 ± 0.13* | Transglutaminase 1 RNA expression amount [1]: 1.99 ± 0.06* | Involucrin RNA expression amount (involucrin (ivl)): 2.04 ± 0.02* | Filaggrin RNA expression amount (filaggrin (FLG)): 2.98 ± 0.58** | Hyaluronic acid synthase 2 RNA expression amount [2]: 2.18 ± 0.67**
